Experimental data reported in PMC11440591 (Journal of Medicinal Chemistry, 2024).
Where two headings read alike, the source gives them in different places.

Legend:
EBOV like particles = details: cited from earlier work
[1] = test system: pseudotypes with the SUDV envelope (pSUDV); test: microbe, parasite or virus in culture; type: cell-based; details: Sudan ebolavirus, read-out: EC50 (pSUDV)
[2] = test system: VSV-G-pseudotype virus (pVSV-G); test: microbe, parasite or virus in culture; type: cell-based; details: Vesicular stomatitis virus, read-out: %inh@10µM (pVSV-G)
[3] = molecular target: EBOV-GPcl/NPC1-domain C interaction (Zaire ebolavirus, UniProt Q05320); type: binding, EBOV; Homo sapiens
EBOV-GPcl/NPC1-domain C interaction, sequence (Q05320 33-190 limits assumed): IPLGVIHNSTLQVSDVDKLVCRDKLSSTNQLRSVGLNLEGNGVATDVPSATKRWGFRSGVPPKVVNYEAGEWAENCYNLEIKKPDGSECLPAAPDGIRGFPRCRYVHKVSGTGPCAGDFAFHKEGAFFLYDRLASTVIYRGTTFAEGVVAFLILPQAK
EBOV-GPcl/NPC1-domain C interaction, sequence (Q05320 502-676 limits assumed): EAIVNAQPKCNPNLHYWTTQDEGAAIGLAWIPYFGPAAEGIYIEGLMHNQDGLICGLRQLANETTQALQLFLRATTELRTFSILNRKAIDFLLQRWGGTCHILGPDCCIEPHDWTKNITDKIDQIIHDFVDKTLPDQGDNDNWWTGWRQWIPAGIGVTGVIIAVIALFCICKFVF

[4] = male, BALB/c, mouse, in vivo
in vivo [5] = details: male, BALB/c, mouse
in vitro [6] = details: chlorocebus sabaeus
hERG potassium channel [7] = molecular target: T1, hERG potassium channel (Homo sapiens, UniProt Q12809); test: in vitro
T1 sequence (Q12809 whole entry): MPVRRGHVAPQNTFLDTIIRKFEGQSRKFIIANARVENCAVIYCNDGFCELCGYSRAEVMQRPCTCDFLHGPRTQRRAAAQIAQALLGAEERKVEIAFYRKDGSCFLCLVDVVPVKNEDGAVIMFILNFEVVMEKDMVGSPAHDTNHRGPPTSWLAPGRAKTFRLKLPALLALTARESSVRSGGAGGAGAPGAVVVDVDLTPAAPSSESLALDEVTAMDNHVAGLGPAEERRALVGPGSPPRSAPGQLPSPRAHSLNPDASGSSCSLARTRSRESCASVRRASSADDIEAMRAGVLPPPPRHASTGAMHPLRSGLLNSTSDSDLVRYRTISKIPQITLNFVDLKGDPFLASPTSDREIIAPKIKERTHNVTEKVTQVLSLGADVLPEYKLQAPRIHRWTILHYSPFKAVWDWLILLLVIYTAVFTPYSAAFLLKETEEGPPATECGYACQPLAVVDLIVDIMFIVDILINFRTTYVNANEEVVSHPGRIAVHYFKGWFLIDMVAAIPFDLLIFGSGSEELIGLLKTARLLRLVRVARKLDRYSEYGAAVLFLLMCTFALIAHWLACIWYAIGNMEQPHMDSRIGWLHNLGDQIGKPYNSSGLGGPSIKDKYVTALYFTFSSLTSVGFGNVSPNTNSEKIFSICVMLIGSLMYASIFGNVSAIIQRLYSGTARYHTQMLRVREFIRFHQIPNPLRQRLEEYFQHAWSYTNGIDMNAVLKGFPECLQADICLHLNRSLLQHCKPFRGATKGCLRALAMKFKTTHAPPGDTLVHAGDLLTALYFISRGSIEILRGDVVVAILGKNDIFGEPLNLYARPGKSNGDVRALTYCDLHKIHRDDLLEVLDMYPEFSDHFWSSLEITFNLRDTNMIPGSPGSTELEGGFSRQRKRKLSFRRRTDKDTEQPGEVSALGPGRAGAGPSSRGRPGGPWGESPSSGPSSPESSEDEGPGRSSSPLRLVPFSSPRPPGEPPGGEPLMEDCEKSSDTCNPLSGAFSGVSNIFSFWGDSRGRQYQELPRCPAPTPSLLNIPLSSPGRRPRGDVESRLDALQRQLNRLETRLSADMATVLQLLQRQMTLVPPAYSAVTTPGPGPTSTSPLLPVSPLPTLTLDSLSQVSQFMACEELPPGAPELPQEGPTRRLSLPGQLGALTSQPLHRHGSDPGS

Nav1.5 = Nav1.5 (Homo sapiens, UniProt Q14524); test: in vitro
Nav1.5, sequence (Q14524 whole entry): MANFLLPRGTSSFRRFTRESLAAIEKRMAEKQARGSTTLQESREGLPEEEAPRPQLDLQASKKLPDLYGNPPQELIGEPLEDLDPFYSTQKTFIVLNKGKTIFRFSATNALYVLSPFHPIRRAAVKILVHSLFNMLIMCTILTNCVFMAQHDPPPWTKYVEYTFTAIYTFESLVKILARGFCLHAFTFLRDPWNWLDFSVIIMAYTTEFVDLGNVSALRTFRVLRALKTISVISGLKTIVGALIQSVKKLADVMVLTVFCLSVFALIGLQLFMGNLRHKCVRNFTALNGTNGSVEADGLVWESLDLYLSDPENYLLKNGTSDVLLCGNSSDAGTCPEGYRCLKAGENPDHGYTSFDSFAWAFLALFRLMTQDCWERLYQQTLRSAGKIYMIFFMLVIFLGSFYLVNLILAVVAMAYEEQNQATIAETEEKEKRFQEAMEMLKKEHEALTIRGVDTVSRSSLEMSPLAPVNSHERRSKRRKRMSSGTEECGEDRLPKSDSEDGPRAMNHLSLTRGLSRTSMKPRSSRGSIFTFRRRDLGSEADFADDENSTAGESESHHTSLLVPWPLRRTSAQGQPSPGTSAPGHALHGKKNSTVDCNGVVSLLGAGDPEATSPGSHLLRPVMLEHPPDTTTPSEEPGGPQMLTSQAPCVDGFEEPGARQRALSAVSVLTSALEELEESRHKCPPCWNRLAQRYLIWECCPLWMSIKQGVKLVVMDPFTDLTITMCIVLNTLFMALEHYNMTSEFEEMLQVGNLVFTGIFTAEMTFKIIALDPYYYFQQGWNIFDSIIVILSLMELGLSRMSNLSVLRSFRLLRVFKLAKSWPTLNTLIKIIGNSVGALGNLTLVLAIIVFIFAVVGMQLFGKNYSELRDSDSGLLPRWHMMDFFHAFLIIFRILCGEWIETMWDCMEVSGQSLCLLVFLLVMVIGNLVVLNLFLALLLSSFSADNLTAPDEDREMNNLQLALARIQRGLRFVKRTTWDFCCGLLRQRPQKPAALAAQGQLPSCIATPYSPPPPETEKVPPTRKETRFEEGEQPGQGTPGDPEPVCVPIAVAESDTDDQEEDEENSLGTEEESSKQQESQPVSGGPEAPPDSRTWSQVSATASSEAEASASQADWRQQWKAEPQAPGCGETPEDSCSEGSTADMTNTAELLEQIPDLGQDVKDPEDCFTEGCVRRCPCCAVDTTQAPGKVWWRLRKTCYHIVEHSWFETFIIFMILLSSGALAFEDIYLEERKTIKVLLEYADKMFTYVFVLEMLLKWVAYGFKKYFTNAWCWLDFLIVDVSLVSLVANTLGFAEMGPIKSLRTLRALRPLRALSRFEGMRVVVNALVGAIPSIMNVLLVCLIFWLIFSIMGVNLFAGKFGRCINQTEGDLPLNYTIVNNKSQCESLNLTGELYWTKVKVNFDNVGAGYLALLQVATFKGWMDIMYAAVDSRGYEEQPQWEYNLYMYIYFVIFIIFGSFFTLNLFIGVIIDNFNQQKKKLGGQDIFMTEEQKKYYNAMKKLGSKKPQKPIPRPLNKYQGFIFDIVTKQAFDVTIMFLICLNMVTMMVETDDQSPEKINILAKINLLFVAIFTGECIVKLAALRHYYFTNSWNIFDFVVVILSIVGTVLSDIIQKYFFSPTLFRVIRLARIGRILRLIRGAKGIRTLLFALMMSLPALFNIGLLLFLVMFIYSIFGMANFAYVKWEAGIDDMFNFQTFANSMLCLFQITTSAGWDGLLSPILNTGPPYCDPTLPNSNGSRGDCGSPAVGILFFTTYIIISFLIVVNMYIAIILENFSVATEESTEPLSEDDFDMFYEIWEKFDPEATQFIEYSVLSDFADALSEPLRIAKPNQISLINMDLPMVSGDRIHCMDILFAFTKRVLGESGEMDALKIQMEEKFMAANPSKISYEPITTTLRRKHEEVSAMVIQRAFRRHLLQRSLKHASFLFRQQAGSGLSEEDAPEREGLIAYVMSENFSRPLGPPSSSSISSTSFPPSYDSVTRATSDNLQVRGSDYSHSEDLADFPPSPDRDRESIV

[8] = test system: EBOV-GP-pseudotyped virus (pEBOV); test: microbe, parasite or virus in culture; details: Vesicular stomatitis virus, Vero C1008, 24 h, read-out: EC50 (pEBOV)
[9] = test system: wild-type Zaire EBOV Mayinga 1976 strain (EBOV May); test: microbe, parasite or virus in culture; details: Zaire ebolavirus, Vero C1008, 72 h, read-out: EC50 (EBOV May)
in vivo [10] = details: both, C57BL/6, mouse, po
in vitro [11] = details: human, microsomes, pH 7.4
in vitro [12] = details: CD-1, mouse, microsomes, pH 7.4
hERG potassium channel [13] = molecular target: T1, hERG potassium channel; test: cell-based

SMILES | EC50 [1] | inhibition at 10 µM [2] | inhibitory effect on EBOV-GPcl/NPC1-domain C interaction (in words) [3] | brain concentration ([4]; ip, 10 mg/kg) | estimated plasma concentration ([4]; ip, 10 mg/kg) | brain concentration ([4]; po, 50 mg/kg) | estimated plasma concentration ([4]; po, 50 mg/kg) | half-life at 24 h (in vivo [5]; ip, 10 mg/kg) | Cmax at 24 h (in vivo [5]; ip, 10 mg/kg) | half-life at 24 h (in vivo [5]; po, 50 mg/kg) | CC50 at 24 h (in vitro [6]) | IC50 (hERG potassium channel [7]) | IC50 (Nav1.5) | EC50 [8] | EC50 [9] | other results
CN(C)CCCN1c2ccccc2CCc2ccccc21 [Imipramine, imipramine] |  |  |  |  |  |  |  |  |  |  |  |  |  |  |  | IC50 (EBOV like particles): 13.2 µM
O=C(Nc1ccccc1)c1ccc(-c2ccccc2OC2CCNCC2)s1 [compound 1, N-Phenyl-5-(2-(piperidin-4-yloxy)phenyl)thiophene-2-carboxamide] | 2.64 µM | 0.66% | comparable effect than the control imipramine | 330 nM | 0.32 µM | 810 nM | 0.29 µM | 1.96 h | 122 ng/mL | 5.6 h | 34 µM | 10.6 µM | 20.4 µM | 5.91 µM | 1.5 µM | 
O=C(Nc1ccccc1)c1ccc(-c2ccc(OC3CCNCC3)cc2)s1 [compound 57, N-Phenyl-5-(4-(piperidin-4-yloxy)phenyl)thiophene-2-carboxamide] | 1.68 µM | 24% | comparable effect than the control imipramine | 4430 nM | 2.74 µM | 14800 nM | 2.04 µM | 5.18 h | 1040 ng/mL | 8.76 h | 11 µM | 48.9 µM | > 50 µM | 8.16 µM | 0.19 µM | Cmax (in vivo [5]; ip, 10 mg/kg): 1680 ng/mL; Tmax (in vivo [5]; ip, 10 mg/kg): 4 h; Tmax at 24 h (in vivo [5]; ip, 10 mg/kg): 0.5 h; Cmax (in vivo [5]; po, 50 mg/kg): 773 ng/mL; Cmax at 24 h (in vivo [5]; po, 50 mg/kg): 5600 ng/mL; Tmax (in vivo [5]; po, 50 mg/kg): 4 h; Tmax at 24 h (in vivo [5]; po, 50 mg/kg): 2 h; MTD (in vivo [10]): 100 mg/kg; half-life at 1 h, 10 µM (in vitro [11]): 2.17 ± 0.15 h; half-life at 1 h, 10 µM (in vitro [12]): 0.483 ± 0.0833 h; IC50 (hERG potassium channel [13]): ~50 µM
